Experiments:
[1] = Preformulation study: solubility of dolutegravir sodium in water; format: physicochemical; settings: preformulation studies
Experimental: Preformulation studies of dolutegravir sodium were performed to know the physical appearance and organoleptic properties.

[2] = cited from earlier work
[3] = In vitro drug dissolution, USP Type II apparatus; format: physicochemical
Experimental: In vitro drug dissolution studies 01 In vitro dissolution studies of the pure dolutegravir (PD) and its aquasomal formulations (F1 to F6) were carried out using USP-Type II dissolution apparatus. 900 ml of pH 6.8 phosphate buffer was used as dissolution media and temperature was maintained at 37° C.±0.5° C. with paddle rotation speed at 50 rpm. Aliquots of 5 ml were withdrawn at various intervals and were replaced with same quantity of fresh dissolution medium to maintain the sink condition. Samples were filtered through wattman filter paper and analysed UV—Vis spectrophotometrically at 259.80 nm. The dissolution experiments were conducted in triplicate and the cumulative percentage of drug release was calculated. […] Dissolution efficiency (DE) values were calculated as per Khan^1 and T50 (time taken for 50% dissolution) values were recorded from the dissolution profiles.
A comparative in vitro drug release study was performed in pH 6.8 phosphate buffer for pure dolutegravir sodium (PD) and all designed formulations (F1-F6), the data was shown in Table 7. The dissolution experiments were conducted in triplicate. Dissolution efficiency (DE5) values were calculated as per Khan^1. T50 (time taken for 50% dissolution) values were recorded from the dissolution profiles.
The dissolution data of formulations PD and dolutegravir aquasomes were fitted into mathematical models such as zero order, first order and Hixson Crowell models kinetics and the plots were shown in Table No: 8. The release kinetics of pure drug (PD) and dolutegravir aquasomes follows zero order as well as Hixson Crowell model because the values of regression coefficient obtained for zero order release profiles are higher as compared to first order kinetics. […] The cube root dissolution rate constant (KH) of Hixson Crowell values of PD is 0.124 and optimized formulation F6 is 0.713. During dissolution, the radius of the particle, mass of the particle was changed. […]

[4] = tested on: herpes simplex virus (HSV) infected vero cells; assay: In vitro MTT antiviral assay; format: cell-based; settings: 0.01 to 100 μ/mL
[5] = tested on: human plasma proteins; settings: cited from earlier work
[6] = biological target: T1, UGT1A1 (Homo sapiens, UniProt P22309); settings: cited from earlier work
T1 sequence (P22309 26-533): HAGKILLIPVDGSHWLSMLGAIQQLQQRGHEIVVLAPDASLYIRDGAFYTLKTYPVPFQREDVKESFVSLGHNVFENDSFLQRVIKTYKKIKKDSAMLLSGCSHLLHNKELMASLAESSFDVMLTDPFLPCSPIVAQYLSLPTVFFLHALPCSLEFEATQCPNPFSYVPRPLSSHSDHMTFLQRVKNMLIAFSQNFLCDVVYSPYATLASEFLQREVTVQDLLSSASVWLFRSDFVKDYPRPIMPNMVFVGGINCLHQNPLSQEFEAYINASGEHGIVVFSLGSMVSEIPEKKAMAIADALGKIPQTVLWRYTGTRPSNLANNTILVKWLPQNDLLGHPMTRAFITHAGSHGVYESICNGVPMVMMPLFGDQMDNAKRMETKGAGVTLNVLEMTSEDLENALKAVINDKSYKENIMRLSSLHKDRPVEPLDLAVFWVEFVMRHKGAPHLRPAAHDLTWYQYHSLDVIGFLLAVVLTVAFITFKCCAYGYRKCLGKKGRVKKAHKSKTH

[7] = cited from earlier work; remark: listed apart in the source

SMILES: C[C@@H]1CCO[C@H]2Cn3cc(C(=O)NCc4ccc(F)cc4F)c(=O)c(O)c3C(=O)N12 [PD, sodium (4R,12aS)-9-{[(2,4-difluorophenyl)methyl]carbamoyl}-4-methyl-6,8-dioxo-3,4,6,8,12,12a-hexahydro-2H-pyrido[1′, 2′:4,5]pyrazino[2,1-b][1,3]oxazin-7-olate]
- solubility [1]: 1.6 µg/mL
- Solubility: soluble in water ([2]; at 25° C.): 3500 µg/mL
- Particle Size ([2]; drug profile): 5 microns
- T50 (time taken for 50% dissolution) [3]: 38.5 h
- % of Dolutegravir Sodium Release ([3]; 0 hr, pH 6.8 phosphate buffer): 0%
- % of Dolutegravir Sodium Release ([3]; 0.5 hr, pH 6.8 phosphate buffer): 7.38 ± 0.12%
- % of Dolutegravir Sodium Release ([3]; 1 hr, pH 6.8 phosphate buffer): 13.45 ± 0.14%
- % of Dolutegravir Sodium Release ([3]; 2 hr, pH 6.8 phosphate buffer): 15.27 ± 0.12%
- % of Dolutegravir Sodium Release ([3]; 3 hr, pH 6.8 phosphate buffer): 15.79 ± 0.19%
- % of Dolutegravir Sodium Release ([3]; 4 hr, pH 6.8 phosphate buffer): 16.92 ± 0.12%
- % of Dolutegravir Sodium Release ([3]; 5 hr, pH 6.8 phosphate buffer): 17.82 ± 0.09%
- % of Dolutegravir Sodium Release ([3]; 6 hr, pH 6.8 phosphate buffer): 18.33 ± 0.10%
- % of Dolutegravir Sodium Release ([3]; 7 hr, pH 6.8 phosphate buffer): 20.13 ± 0.12%
- % of Dolutegravir Sodium Release ([3]; 8 hr, pH 6.8 phosphate buffer): 20.27 ± 0.43%
- % of Dolutegravir Sodium Release ([3]; 9 hr, pH 6.8 phosphate buffer): 22.27 ± 0.12%
- % of Dolutegravir Sodium Release ([3]; 10 hr, pH 6.8 phosphate buffer): 22.45 ± 0.14%
- % of Dolutegravir Sodium Release ([3]; 11 hr, pH 6.8 phosphate buffer): 25.23 ± 0.13%
- % of Dolutegravir Sodium Release ([3]; 12 hr, pH 6.8 phosphate buffer): 26.45 ± 0.22%
- DE5 (dissolution efficiency) ([3]; at 5 h, pH 6.8 phosphate buffer): 14.80%
- Hixson Crowell (KH) ([3]; cube root dissolution rate constant): 0.124 mg^1/3/hr
- First order (K1) ([3]; dissolution rate constant): 0.018 h⁻¹
- Zero order (Ko) ([3]; dissolution rate constant): 1.566 mg/h
- Correlation Coefficient Values (r) First order ([3]; drug release kinetics fit): 0.845
- Correlation Coefficient Values (r) Hixson Crowell ([3]; drug release kinetics fit): 0.443
- Correlation Coefficient Values (r) Zero order ([3]; drug release kinetics fit): 0.812
- IC50 [4]: 57.9 ± 4.6 µg/mL
- protein bound to human plasma proteins [5]: > 98.9%
- primarily metabolized by [6]: UGT1A1
- Cmax ([7]; absorption): 7.97-14.70 μm
- tmax ([7]; absorption): 0.5 to 2 h
- Clearance ([7]; in vivo): 1 L/h
- Half-life ([7]; in vivo): 14 h
- drug eliminated from urine ([7]; in vivo): 32%
- drug eliminated through feces ([7]; in vivo): 53%

From patent US20230310442A1, “POLY HYDROXY OLIGOMER COATED DOLUTEGRAVIR AQUASOMES AND METHOD THEREOF” (priority 2020, published 2023)
